The text below walks through data of PMC7158045 (BMC Plant Biology, 2020).

Experiment in all cases: biochemical
In assay [1] the target is T1, ZmDRIK1-R187-P492 (Zea mays, UniProt C0P4K9).
T1 construct: kinase domain, R187-P492
T1 sequence (C0P4K9 1-514): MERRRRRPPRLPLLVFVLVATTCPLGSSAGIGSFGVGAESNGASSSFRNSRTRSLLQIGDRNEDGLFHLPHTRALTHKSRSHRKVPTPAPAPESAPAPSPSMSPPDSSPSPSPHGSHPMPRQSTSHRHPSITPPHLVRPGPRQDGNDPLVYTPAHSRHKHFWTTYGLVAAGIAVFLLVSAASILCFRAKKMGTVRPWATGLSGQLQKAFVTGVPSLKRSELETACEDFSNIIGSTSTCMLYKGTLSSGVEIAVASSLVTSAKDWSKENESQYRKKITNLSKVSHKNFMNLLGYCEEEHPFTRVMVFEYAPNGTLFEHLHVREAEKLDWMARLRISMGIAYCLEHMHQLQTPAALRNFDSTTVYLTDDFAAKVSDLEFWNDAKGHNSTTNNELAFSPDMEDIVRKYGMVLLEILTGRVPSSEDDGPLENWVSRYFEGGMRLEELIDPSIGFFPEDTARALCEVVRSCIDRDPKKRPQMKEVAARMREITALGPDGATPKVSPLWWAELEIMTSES
Conditions: read-out: dTm B, DSF, Boltzmann fit, 0.1% DMSO.

The target of assay [2] is T2, ZmDRIK1-K217-S514 (Zea mays, UniProt C0P4K9).
T2 construct: kinase domain, K217-S514
T2 sequence (C0P4K9 1-514): T1 sequence (C0P4K9 1-514)
Conditions: read-out: dTm B, sheet ZmDRIK1-K217-S514;; DSF, Boltzmann fit, 0.1% DMSO.

Assay [3] concerns the target T3, ZmDRIK1 (DROUGHT RESPONSIVE INACTIVE KINASE 1), kinase domain (Zea mays, UniProt C0P4K9).
T3 construct: gene ZEAMMB73_Zm00001d028770; ZmDRIK1-KD R187-S514 (kinase domain)
T3 sequence (C0P4K9 187-514): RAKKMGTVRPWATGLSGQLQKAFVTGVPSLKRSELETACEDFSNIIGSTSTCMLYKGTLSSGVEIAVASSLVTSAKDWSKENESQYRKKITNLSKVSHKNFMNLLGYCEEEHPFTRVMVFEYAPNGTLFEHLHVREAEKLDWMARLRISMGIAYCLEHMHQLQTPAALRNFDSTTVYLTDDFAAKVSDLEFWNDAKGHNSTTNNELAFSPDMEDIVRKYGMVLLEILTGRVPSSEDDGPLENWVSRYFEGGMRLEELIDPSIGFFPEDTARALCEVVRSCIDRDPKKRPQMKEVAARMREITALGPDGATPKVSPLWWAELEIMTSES
Conditions: read-out: dTm B, sheet ZmDRIK1-R187-S514;; DSF, Boltzmann fit, 0.1% DMSO.

The target of assay [4] is T4, ZmDRIK1-K217-P492 (Zea mays, UniProt C0P4K9).
T4 construct: kinase domain, K217-P492
T4 sequence (C0P4K9 1-514): T1 sequence (C0P4K9 1-514)
Conditions: read-out: dTm B, sheet ZmDRIK1-K217-P492;; DSF, Boltzmann fit, 0.1% DMSO.

In the case of `O=C1NC(=O)/C(=C/c2ccc3c(c2)OC(F)(F)O3)S1` [AS-604850], the ΔTm at 10 µM in assay [1] was -0.284 °C; in assay [2] it was -0.526 °C; in assay [3], -0.905 °C; in assay [4], -0.999 °C.

For `CN1CCN(c2nc(C3=C(c4c[nH]c5ccccc45)C(=O)NC3=O)c3ccccc3n2)CC1` [Sotrastaurin], the ΔTm at 10 µM was -0.608 °C in assay [1], -0.412 °C in assay [2], -0.541 °C in assay [3] and -0.642 °C in assay [4].

For the compound `CO[C@H]1C[C@@H]2CC[C@@H](C)[C@@](O)(O2)C(=O)C(=O)N2CCCC[C@H]2C(=O)O[C@H]([C@H](C)C[C@@H]2CC[C@H](n3cnnn3)[C@H](OC)C2)CC(=O)[C@H](C)/C=C(\C)[C@@H](O)[C@@H](OC)C(=O)[C@H](C)C[C@H](C)/C=C/C=C/C=C/1C` [Zotarolimus(ABT-578)], the ΔTm at 10 µM in assay [1] is -0.286 °C; in assay [2], -0.269 °C; in assay [3], -0.396 °C; in assay [4] it was -0.534 °C.

As to `Cc1c(F)cc(C(=O)NC2CC2)cc1-c1ccc(C(=O)NCC(C)(C)C)cn1` [Losmapimod (GW856553X)], the ΔTm at 10 µM was -0.242 °C in assay [1], -0.464 °C in assay [2], -0.594 °C in assay [3] and -0.577 °C in assay [4].

Regarding `O=C(c1ccc(Nc2nccc(-c3cc4ccccc4s3)n2)cc1)N1CCC(N2CCCC2)CC1` [IKK-16 (IKK Inhibitor VII)], the ΔTm at 10 µM in assay [1] is 0.0892 °C; in assay [2] it was 0.121 °C; in assay [3], -0.0967 °C; in assay [4], -0.786 °C.

As for `CNCc1ccc(-c2cc(-c3nc(-c4ccc(S(=O)(=O)C(C)C)cc4)cnc3N)on2)cc1` [VE-822], the ΔTm at 10 µM in assay [1] is -0.196 °C; in assay [2], -0.454 °C; in assay [3] it was -0.91 °C; in assay [4], -0.634 °C.

On to `COc1cc2c(Nc3ccc(NC(=O)c4ccccc4)cc3)ncnc2cc1OCCCN1CCOCC1` [ZM 447439], for which the ΔTm at 10 µM in assay [1] is 0.124 °C; in assay [2], 0.111 °C; in assay [3], -0.965 °C; in assay [4] it was -0.314 °C.

As for `C[C@@H]1COCCN1c1cc(C2(S(C)(=O)=O)CC2)nc(-c2cccc3[nH]ccc23)n1` [AZ20], the ΔTm at 10 µM was -0.0341 °C in assay [1], -0.493 °C in assay [2], -0.953 °C in assay [3] and -0.913 °C in assay [4].

`CCOc1ccn(-c2ccc(F)cc2)c(=O)c1C(=O)Nc1ccc(Oc2ccnc(N)c2Cl)c(F)c1` [BMS-777607]: the ΔTm at 10 µM is -0.218 °C in assay [1], -0.662 °C in assay [2], -1.06 °C in assay [3] and -0.979 °C in assay [4].

Take `O=C(c1ccc(/C=C/c2n[nH]c3ccccc23)cc1)N1CCNCC1` [KW-2449]: the ΔTm at 10 µM in assay [1] was -0.0311 °C; in assay [2], -0.13 °C; in assay [3], -0.807 °C; in assay [4] it was -0.672 °C.

Turning to `CC(C)CC(=O)Nc1n[nH]c2c1CN(C(=O)C1CCN(C)CC1)C2(C)C` [PHA-793887], the ΔTm at 10 µM in assay [1] is -0.158 °C; in assay [2] it was -0.312 °C; in assay [3], -0.826 °C; in assay [4], -0.634 °C.

As for `O=C(Nc1ccc(-c2ccnc(Nc3ccc(N4CCOCC4)cc3)n2)cc1)C1CCCN1` (centres unmarked) [XL019], the ΔTm at 10 µM in assay [1] was -0.478 °C; in assay [2] it was -0.368 °C; in assay [3], -0.481 °C; in assay [4], -0.95 °C.

`COc1cc(Nc2c(C#N)cnc3cc(OCCCN4CCN(C)CC4)c(OC)cc23)c(Cl)cc1Cl` [Bosutinib (SKI-606)]: the ΔTm at 10 µM in assay [1] was -0.491 °C; in assay [2], -0.473 °C; in assay [3] it was -0.814 °C; in assay [4] it was -1.46 °C.

For the compound `Oc1ccc(Nc2nc(-c3ccc(Cl)cc3)cs2)cc1` [SKI II], the ΔTm at 10 µM in assay [1] is -2.86 °C; in assay [2], -1.52 °C; in assay [3] it was 0.0373 °C; in assay [4] it was -0.22 °C.
